Results on 13 compounds are retold here after ChEMBL document CHEMBL1201862, “PubChem BioAssay data set” (2004).

Molecules are shown by their SMILES.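 Following 48 hours of exposure in 96-well plates, responses at five concentrations were used to interpolate endpoints linearly. The concentration for 50% growth inhibition is given as GI50.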 Active and inactive are the calls of the source. Rule as the data show it: active = GI50 up to about 1.1 µM and inactive = higher.

What all share (test): growth of human tumour cells (NCI), 48 h
Assay [1] deals with 786-0.
The test system of assay [2] is OVCAR-3.
Assay [3] deals with OVCAR-8.
Assay [4] has as its system NCI-H522.
Assay [5] deals with SK-MEL-2.
Assay [6] deals with HCC 2998.
In assay [7] the test system is TK-10.
Assay [8] concerns HCT-15.
The test system of assay [9] is CAKI-1.
Assay [10] relates to A498.
The test system of assay [11] is K562.
The subject of assay [12] is SF-268.
Assay [13] concerns MOLT-4.
Assay [14] relates to SF-539.
Assay [15] concerns NCI-H226.
Assay [16] deals with Malme-3M.
Assay [17] concerns PC-3.
The subject of assay [18] is MDA-MB-435.
For assay [19], the system named is DU-145.
The test system of assay [20] is Hs-578T.

For the compound `COC(=O)C(=O)C(C(=O)C=C(C)C)C(=O)C(=O)Nc1ccc(Cl)cc1C` (stereo unspecified), the GI50 in [1] is > 100 µM (inactive); in [2] it was > 100 µM (inactive); in assay [3], > 100 µM (inactive); in assay [4] it was 69.2 µM (inactive); in assay [5] it was > 100 µM (inactive); in assay [6], > 100 µM (inactive). In addition, the GI50 was > 100 µM (inactive) in [7]; more than 100 µM in assay [8]; > 100 µM (inactive) in assay [9]; > 100 µM (inactive) in assay [10]; 71.8 µM (inactive) in assay [11]; > 100 µM (inactive) in [12]. The GI50 in assay [13], in assay [14], in assay [15] and in assay [16] was > 100 µM (inactive) in each case.
For `O=C(CCN1CCCCC1CCO)Nc1ccc2c(c1)C(=O)c1ccc(NC(=O)CCN3CCCCC3CCO)cc1C2=O` (stereo unspecified), the GI50 was 1.97 µM (inactive) in [1]; 2.37 µM (inactive) in assay [2]; 3.73 µM (inactive) in assay [3]; 2.16 µM (inactive) in assay [4]; 2.49 µM (inactive) in assay [5]; 0.0418 µM (active) in assay [6]. Besides, the GI50 in assay [7] was 3.1 µM (inactive); in assay [8], 11.2 µM; in assay [9], 23.7 µM (inactive); in [10] it was 1.86 µM (inactive); in assay [11], 3.85 µM (inactive); in assay [12], 4.88 µM (inactive). Moreover, the GI50 is 4.25 µM (inactive) in assay [13], 2.1 µM (inactive) in assay [14], 5.71 µM (inactive) in [15] and 2.64 µM (inactive) in [16].
As to `CC1(C)C2CCC13C(=O)C1OC3(C2)C2C(=O)N(c3ccccc3)C(=O)C12` (stereo unspecified), the GI50 in assay [1] is > 100 µM (inactive); in assay [2], > 100 µM (inactive); in assay [3], > 100 µM (inactive); in assay [4], 20.1 µM (inactive); in [5], > 100 µM (inactive); in assay [6], > 100 µM (inactive). For the same compound, the GI50 in assay [7] was > 100 µM (inactive); in assay [8], more than 100 µM; in assay [9], > 100 µM (inactive); in [10], > 100 µM (inactive); in assay [11], > 100 µM (inactive); in assay [12], > 100 µM (inactive). In addition, the GI50 in assay [13], in assay [14], in assay [15] and in [16] was > 100 µM (inactive) throughout.
Regarding `CC(C)(C)c1ccccc1NS(=O)(=O)c1ccccc1`, the GI50 is > 100 µM (inactive) in [1]; 71.4 µM (inactive) in assay [2]; > 100 µM (inactive) in assay [3]; > 100 µM (inactive) in assay [5]; > 100 µM (inactive) in assay [6]; > 100 µM (inactive) in assay [7]. The GI50 in [8] was more than 100 µM; in assay [9] it was 64 µM (inactive); in [10], > 100 µM (inactive); in [11], 44.9 µM (inactive); in [13], 38 µM (inactive); in [14], > 100 µM (inactive). The GI50 was 21.9 µM (inactive) in assay [15] and > 100 µM (inactive) in assay [16].
In the case of `CO/C(=N\N=C\c1ccc(C(F)(F)F)cc1)c1ccncc1`, the GI50 in assay [1], in assay [17], in assay [2], in assay [3], in assay [4] and in assay [5] was > 10 µM (inactive) throughout. Besides, the GI50 in [6] is > 10 µM (inactive); in assay [7], > 10 µM (inactive); in assay [8], more than 10 µM; in assay [9] it was > 10 µM (inactive); in assay [11] it was > 10 µM (inactive); in [12], > 10 µM (inactive). Further, the GI50 in assay [13], in [18], in [15], in assay [19] and in assay [16] was > 10 µM (inactive) in each case.
Take `CC(C)(Cc1ccccc1)Cc1cc(O)ccc1O`: the GI50 is 12.7 µM (inactive) in [1]; 22.2 µM (inactive) in [17]; 11.8 µM (inactive) in assay [2]; 17.2 µM (inactive) in assay [3]; 4.93 µM (inactive) in assay [4]; 20 µM (inactive) in assay [6]. For the same compound, the GI50 in assay [7] is 36.2 µM (inactive); in assay [8] it was 17.5 µM; in [9], 20.7 µM (inactive); in assay [10] it was 22 µM (inactive); in [11], 12.4 µM (inactive); in [12], 13.9 µM (inactive). For the same compound, the GI50 is 14.8 µM (inactive) in [13]; 17.2 µM (inactive) in assay [18]; 13 µM (inactive) in [14]; 33.8 µM (inactive) in assay [15]; 23.1 µM (inactive) in assay [19]; 16.8 µM (inactive) in assay [16].
Consider `c1ccc2c(c1)SCCCS2`, for which the GI50 in [1], in assay [17], in assay [2], in assay [3], in [4] and in assay [6] was > 100 µM (inactive) each time. Besides, the GI50 in assay [7] was > 100 µM (inactive); in [8] it was more than 100 µM; in [11], > 100 µM (inactive); in assay [12], > 100 µM (inactive); in assay [13] it was > 100 µM (inactive); in assay [18] it was > 100 µM (inactive). Further, the GI50 in [14] and in [19] was > 100 µM (inactive) in each case.
On to `Cc1nnc([C@@]2(C)CC[C@H]3[C@@H](CC=C4C[C@@H](O)CC[C@@]43C)[C@@H]2CC#N)o1`, for which the GI50 was > 100 µM (inactive) in assay [1]; > 100 µM (inactive) in assay [17]; > 100 µM (inactive) in assay [2]; > 100 µM (inactive) in assay [3]; 11.6 µM (inactive) in assay [20]; 22.5 µM (inactive) in assay [4]. Besides, the GI50 was > 100 µM (inactive) in assay [5]; > 100 µM (inactive) in assay [7]; more than 100 µM in assay [8]; > 100 µM (inactive) in assay [9]; > 100 µM (inactive) in assay [10]; > 100 µM (inactive) in [11]. Further, the GI50 in [12], in assay [13], in assay [18], in assay [14], in assay [15] and in assay [16] was > 100 µM (inactive) in each case.
As for `Cc1c(-c2nnc(-c3ccc(Cl)cc3)o2)c(=O)n(-c2ccccc2)n1C`, the GI50 in assay [1], in assay [2], in [3], in assay [4], in assay [5] and in assay [6] was > 100 µM (inactive) each time. Moreover, the GI50 is > 100 µM (inactive) in assay [7]; more than 100 µM in assay [8]; > 100 µM (inactive) in assay [10]; > 100 µM (inactive) in assay [11]; > 100 µM (inactive) in [12]; > 100 µM (inactive) in assay [13]. Besides, the GI50 in assay [14] is 3.33 µM (inactive); in assay [15], > 100 µM (inactive); in assay [16], > 100 µM (inactive).
`CCCCCC/C=C1\CCC(CN2CCCC2)C1=O` (stereo unspecified): the GI50 is 2.61 µM (inactive) in assay [1]; 13.9 µM (inactive) in assay [2]; 17.2 µM (inactive) in [3]; 1.56 µM (inactive) in [4]; 15.8 µM (inactive) in assay [5]; 17.5 µM (inactive) in assay [6]. Further, the GI50 in assay [7] was 6.56 µM (inactive); in assay [8], 9.16 µM; in assay [9], > 38.5 µM (inactive); in assay [10], 22.8 µM (inactive); in assay [11], 3.87 µM (inactive); in assay [12], 18.5 µM (inactive). Also, the GI50 is 3.76 µM (inactive) in assay [13], 19 µM (inactive) in assay [14], 19.1 µM (inactive) in assay [15] and 19.2 µM (inactive) in [16].
On to `CN(C)C(=O)c1ccc([N+](=O)[O-])cc1`, for which the GI50 in assay [1], in assay [2], in assay [3], in assay [4], in [5] and in assay [6] was > 100 µM (inactive) throughout. The GI50 in assay [7] is > 100 µM (inactive); in [8], more than 100 µM; in assay [9], > 100 µM (inactive); in assay [10], > 100 µM (inactive); in assay [11], > 100 µM (inactive); in [12] it was > 100 µM (inactive). For the same compound, the GI50 in [13], in assay [14], in assay [15] and in assay [16] was > 100 µM (inactive) throughout.
On to `C[C@]12CCC(=O)C[C@H]1CCC(O)[C@@H]2Br` (stereo partly specified), for which the GI50 in assay [1], in [2], in assay [3], in assay [4], in assay [5] and in [6] was > 100 µM (inactive) each time. In addition, the GI50 in assay [7] is > 100 µM (inactive); in assay [8], more than 100 µM; in assay [9], > 100 µM (inactive); in [10], > 100 µM (inactive); in assay [11], > 100 µM (inactive); in assay [12] it was > 100 µM (inactive). Further, the GI50 in [13], in [14], in [15] and in [16] was > 100 µM (inactive) in each case.
Consider `Oc1c2c(nc3cc4c(cc13)OCO4)-c1ccccc1CC2`, for which the GI50 in assay [1], in assay [2], in assay [3], in assay [5], in assay [6] and in [7] was > 100 µM (inactive) in each case. The GI50 in [8] is more than 100 µM; in [10] it was > 100 µM (inactive); in assay [11], > 100 µM (inactive); in [12], > 100 µM (inactive); in assay [13], > 100 µM (inactive); in assay [14] it was > 100 µM (inactive). Also, the GI50 in [15] and in assay [16] was > 100 µM (inactive) in each case.
